Ends that are not written are not given here.

Experimental findings from article PMC2626591, “Phage display-derived inhibitor of the essential cell wall biosynthesis enzyme MurF” (BMC Biochemistry, 2008) are described below.

For assay [1], the target named is T1, P. aeruginosa MurF (Pseudomonas aeruginosa, UniProt Q9EY48).
T1 construct: made in house
The assay is described as follows: MurF kinetics with respect to D-Ala-D-Ala, spectrophotometric (Lanzetta reagent) ATPase assay. The assay is classed as biochemical. On the procedure: (§1) The ATPase activity of P. aeruginosa MurF was quantified by a colorimetric assay that measures the release of nanomoles of inorganic phosphate using the Lanzetta reagent. The reaction mixture (100 μl), held at room temperature, contained 40 nM of purified MurF from a fresh aliquot, 1 mM ATP, 100 μM UDP-MurNAc-Ala-Glu-meso-A2pm and 5 mM D-Ala-D-Ala in buffer C (100 mM Tris-HCl pH 8.6, 40 mM KCl, 500 mM NaCl, 1 mg/ml bovine serum albumin and 10 mM MgCl2). Reaction time was 15 min before adding 800 μl of the Lanzetta reagent. After an additional 5 min for colour development, 100 μl of 34% (w/v) sodium citrate was added to stop the reaction. The optical density at 660 nm was immediately measured with a Cary spectrophotometer (Varian, Mississauga, Ontario, Canada). The amount of inorganic phosphate released by MurF was determined by comparison to the linear portion of a phosphate standard curve with a minimum R^2 value of 0.99. The phosphate content of each component in the reaction was subtracted from the total phosphate measured, negative controls were done without enzyme or substrate, and assays were done in triplicate. Different concentrations of each substrate and NaCl were tested to determine optimal conditions for the study of the activity of MurFp1.
The maximal specific activity, the catalytic constant (kcat), the Michaelis-Menten constant (Km) and the enzyme efficiency (kcat/Km) were determined for MurF with respect to D-Ala-D-Ala. Kinetic parameters were determined by nonlinear regression analysis with a square matrix of enzyme velocities following the Michaelis-Menten equations using the Enzyme Kinetics Module version 1 of SigmaPlot version 8.

The target of assay [2] is T1, P. aeruginosa MurF. Put plainly: MurF inhibition by MurFp1, spectrophotometric (Lanzetta reagent) ATPase assay. The assay is classed as biochemical. The method, then: as §1
MurFp1 was synthesized and purified as previously described. Peptide purity (> 95%) was analyzed by HPLC and molecular mass (1424.68 daltons) was confirmed by MALDI-TOF mass spectroscopy. […]
Inhibition of MurF enzymatic activity by MurFp1 was measured by the spectrophotometric assay described above. […] The effect of non-specific peptides was analysed on MurF enzymatic activity, with and without UDP-MurNAc-Ala-Glu-A2pm in the pre-incubation step. […]
Kinetic data were fitted to the appropriate model equations using the Sigmaplot Enzyme Kinetics Module. Steady-state inhibition kinetic parameters were determined by nonlinear regression analysis using the least squares method as a reference to ensure accurate dataset fitting and to generate error estimates for each individual observation. […]

Assay [3] relates to MurF. The note with it: 12-mer phage library, elution with glycine-HCl, 1 mM ATP or 1 mM D-Ala-D-Ala; ten phages sequenced per elution condition; in words.
Method: Phage display screening was performed with the PH.D.-12 phage library (New England Biolabs, Mississauga, Ontario, Canada). […] Phages encoding selected peptides were eluted at the end of the third round using 100 μl of 0.2 M glycine-HCl (pH 2.2) [17], and 100 μl of 1 mM ATP or 1 mM D-Ala-D-Ala for 30 min. The DNA of ten phages was prepared and sequenced with a -96 gIII primer (New England Biolabs) for each elution condition [23].

T1 sequence (Q9EY48 entry or part of it): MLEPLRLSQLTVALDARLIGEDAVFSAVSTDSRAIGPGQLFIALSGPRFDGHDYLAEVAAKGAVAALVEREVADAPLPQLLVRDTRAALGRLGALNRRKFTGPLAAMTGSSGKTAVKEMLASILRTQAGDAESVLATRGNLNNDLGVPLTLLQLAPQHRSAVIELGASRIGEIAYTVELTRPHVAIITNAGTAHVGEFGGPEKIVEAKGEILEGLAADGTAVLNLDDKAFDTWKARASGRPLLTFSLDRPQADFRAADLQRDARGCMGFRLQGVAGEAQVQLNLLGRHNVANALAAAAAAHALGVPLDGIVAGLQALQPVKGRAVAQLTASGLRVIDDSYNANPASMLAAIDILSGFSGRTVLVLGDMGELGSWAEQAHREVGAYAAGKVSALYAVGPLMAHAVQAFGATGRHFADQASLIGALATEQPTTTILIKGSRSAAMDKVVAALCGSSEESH

As for D-Alanyl-D-Alanine [D-Ala-D-Ala], in assay [1] (MurF, with respect to D-Ala-D-Ala, pH 8.6, room temperature), the Km was found to be 115 ± 10 µM. Also, the “ligations of D-Ala-D-Ala per MurF active site (kcat)” value in assay [1] (ligation to UDP-MurNAc-Ala-Glu-meso-A2pm, from kcat) was “about 100 per min”. Moreover, the kcat/Km in assay [1] (with respect to D-Ala-D-Ala, pH 8.6, room temperature) was found to be 14200 ± 2500 M⁻¹ s⁻¹.

With TMGFTAPRFPHY [MurFp1], at 2000 µM the inhibition in assay [2] (2 mM MurFp1, 30-minute pre-incubation of MurF with MurFp1, no substrate in pre-incubation) was 50%. In assay [2] (30 min pre-incubation with MurF, MurFp1 and UDP-MurNAc-Ala-Glu-meso-A2pm, 40 nM MurF, pH 8.6, room temperature, 15 min reaction, OD 660 nm, assays in triplicate), this substance came in with an IC50 of 250 ± 10 µM. Moreover, the “effect on Km for D-Ala-D-Ala” value in assay [2] (each MurFp1 concentration used, 30 min pre-incubation with UDP-MurNAc-Ala-Glu-A2pm, in words) was “remained almost the same”.

As to VSANRHLGGNLP, the “recovery in third round of bio-panning” value in assay [3] is “recovered once by both the ATP and D-Ala-D-Ala elutions”.
